Here are results for 9 compounds from PubChem BioAssay AID624167 (Sanford-Burnham Center for Chemical Genomics, 2012).

One test concerns GAPDH. As to the kind of experiment: inhibition of PEG-3 promoter-driven reporter – cell-based, HeLa, luciferase, CREF/GAPDH counter-screen panel, dose response (AID 624167). The settings on record: CREF/GAPDH counter-screens.
Test [1] deals with PEG-3 (UniProt Q6IN02). The description is as above. To be noted: HeLa PEG-Prom luciferase reporter, overnight, CREF/GAPDH counter-screens, mean of runs. (A reporter such as luciferase makes a cellular process visible.)
Sequence of PEG-3 (UniProt Q6IN02) (Q6IN02 whole entry, looked up): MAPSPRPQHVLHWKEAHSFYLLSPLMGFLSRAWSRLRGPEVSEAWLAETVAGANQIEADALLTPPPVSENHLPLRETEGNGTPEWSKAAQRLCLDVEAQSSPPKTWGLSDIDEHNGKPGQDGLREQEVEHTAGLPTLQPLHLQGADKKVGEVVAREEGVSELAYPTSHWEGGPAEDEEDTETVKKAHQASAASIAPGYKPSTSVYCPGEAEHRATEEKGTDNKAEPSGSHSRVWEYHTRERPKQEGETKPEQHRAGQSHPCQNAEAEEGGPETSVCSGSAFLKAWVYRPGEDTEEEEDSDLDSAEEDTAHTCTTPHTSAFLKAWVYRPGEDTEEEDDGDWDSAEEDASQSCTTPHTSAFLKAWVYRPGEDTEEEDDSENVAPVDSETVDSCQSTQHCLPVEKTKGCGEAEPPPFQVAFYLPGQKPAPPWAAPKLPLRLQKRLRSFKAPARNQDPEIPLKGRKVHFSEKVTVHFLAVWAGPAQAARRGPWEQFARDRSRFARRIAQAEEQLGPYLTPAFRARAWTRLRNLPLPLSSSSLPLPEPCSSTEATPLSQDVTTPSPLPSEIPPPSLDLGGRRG
Assay in test [2]: as above
To be noted: CREF/GAPDH counter-screens; GAPDH; mean of runs. A general note: The purpose of a counterscreen is to sort out artefacts and off-target activity.

Test [3] concerns PEG-3. The description is as above. To be noted: HeLa PEG-Prom luciferase reporter, overnight, CREF/GAPDH counter-screens.
Another test has as its system Rat fibroblasts (CREF). Described as above. The settings on record: CREF/GAPDH counter-screens.
Setting [4] is: run 1, dose range 1, individual replicate IC50 per panel.
The mark [5] stands for this setting: run 2, dose range 1, individual replicate IC50 per panel.

The source made the active and inactive calls.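 Rule for the calls: active = mean IC50 for reducing PEG3 promoter reporter signal at or below a set limit, with IC50 above the limit in both counter screens; inactive = the rest, including counter screen hits.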

Turning to `CC(C)(C)c1ccc(Cn2c(=O)cnc3ccccc32)cc1`, the half-inhibitory concentration (IC50) (usually the midpoint of a concentration-inhibition curve) with GAPDH (setting [4]) was 5.99 µM; in the test on GAPDH (setting [5]) it was 6.44 µM; in test [2], 6.22 µM; with PEG-3 [3] (setting [4]), 5.23 µM; in the test on PEG-3 [3] (setting [5]) it was above 100 µM; with Rat fibroblasts (CREF) (mean of runs), 51 µM (inactive). Moreover, the values for the IC50 in the test on Rat fibroblasts (CREF) (setting [4]) and in the test on Rat fibroblasts (CREF) (setting [5]) were above 100 µM and 1.93 µM, respectively. Further, the IC50 result on PEG-3 [1] is “inactive”.

Regarding `CC(=O)c1ccc(-c2cnc3c(NC=O)cc(-c4ccccc4Oc4ccccc4)cn23)cc1`, the IC50 is 91.1 µM with GAPDH (setting [4]); above 100 µM with GAPDH (setting [5]); 7.2 µM at PEG-3 [1]; 5.46 µM with PEG-3 [3] (setting [4]); 8.94 µM in the test on PEG-3 [3] (setting [5]); 54.5 µM (inactive) with Rat fibroblasts (CREF) (mean of runs). The IC50 was above 100 µM with Rat fibroblasts (CREF) (setting [4]) and 8.93 µM with Rat fibroblasts (CREF) (setting [5]). The IC50 result in test [2] is “inactive”.

Regarding `COc1ccc(-n2cc(-c3ccccc3)c3c(N4CCOCC4)ncnc32)cc1`, the IC50 is 21.3 µM with GAPDH (setting [4]); 21.4 µM in the test on GAPDH (setting [5]); 10.3 µM on PEG-3 [1]; 21.4 µM in test [2]; 12.1 µM in the test on PEG-3 [3] (setting [4]); 8.51 µM with PEG-3 [3] (setting [5]). The IC50 was 68.5 µM (inactive) in the test on Rat fibroblasts (CREF) (mean of runs), 66.9 µM in the test on Rat fibroblasts (CREF) (setting [4]) and 70.1 µM in the test on Rat fibroblasts (CREF) (setting [5]).

For the compound `O=C(N/N=C/c1cc([N+](=O)[O-])ccc1O)c1ccc(COc2ccc3c(c2)CCC3)o1`, the IC50 was above 100 µM in the test with GAPDH (setting [4]); above 100 µM with GAPDH (setting [5]); 9.2 µM on PEG-3 [1]; > 100 µM (inactive) in test [2]; 7.48 µM in the test with PEG-3 [3] (setting [4]); 10.9 µM in the test on PEG-3 [3] (setting [5]). In addition, the IC50 is 76.8 µM (inactive) with Rat fibroblasts (CREF) (mean of runs), above 100 µM with Rat fibroblasts (CREF) (setting [4]) and 53.7 µM in the test on Rat fibroblasts (CREF) (setting [5]).

As to `COCCCNC(=O)c1ccc(Cn2c(=O)c3ccccc3n(Cc3ccccc3C#N)c2=O)cc1`, the IC50 is above 100 µM in the test on GAPDH (setting [4]); above 100 µM with GAPDH (setting [5]); 4.18 µM at PEG-3 [1]; > 100 µM (inactive) in test [2]; 4.1 µM with PEG-3 [3] (setting [4]); 4.27 µM in the test on PEG-3 [3] (setting [5]). In addition, the IC50 in the test on Rat fibroblasts (CREF) (mean of runs) was > 100 µM (inactive); in the test with Rat fibroblasts (CREF) (setting [4]), above 100 µM; in the test with Rat fibroblasts (CREF) (setting [5]) it was above 100 µM.

As to `CCc1ccc(/C=C2\SC(=S)N(CCCC(=O)Nc3cc(C)on3)C2=O)cc1`, the concentration for half-maximal inhibition (IC50) with GAPDH (setting [4]) is 7.4 µM; with GAPDH (setting [5]), 10.9 µM; at PEG-3 [1], 3.46 µM; in test [2], 9.14 µM; with PEG-3 [3] (setting [4]), 3.86 µM; in the test on PEG-3 [3] (setting [5]) it was 3.05 µM. In addition, the values for the IC50 in the test on Rat fibroblasts (CREF) (mean of runs), in the test with Rat fibroblasts (CREF) (setting [4]) and in the test with Rat fibroblasts (CREF) (setting [5]) were > 100 µM (inactive), above 100 µM and above 100 µM, respectively.

Turning to `O=C(O)c1ccc(N/N=C/c2ccc3c(c2)OCO3)cc1`, the IC50 with GAPDH (setting [4]) was 1.37 µM; in the test with GAPDH (setting [5]), 2.67 µM; at PEG-3 [1], 1.56 µM; in test [2], 2.02 µM; in the test with PEG-3 [3] (setting [4]), 1.24 µM; in the test on PEG-3 [3] (setting [5]), 1.89 µM. Also, the IC50 in the test with Rat fibroblasts (CREF) (mean of runs) is 52.3 µM (inactive); in the test on Rat fibroblasts (CREF) (setting [4]), 57.5 µM; in the test on Rat fibroblasts (CREF) (setting [5]), 47.1 µM.

Regarding `COc1ccc(/C=C2/CCCC(CN(C)C)C2=O)cc1` (stereo unspecified), the IC50 with GAPDH (setting [4]) is 38.2 µM; with GAPDH (setting [5]), 23.9 µM; on PEG-3 [1], 9.68 µM; in the test with PEG-3 [3] (setting [4]), 11.3 µM; in the test on PEG-3 [3] (setting [5]), 8.07 µM; in the test on Rat fibroblasts (CREF) (mean of runs), 28.8 µM. Moreover, the IC50 is 23.6 µM in the test on Rat fibroblasts (CREF) (setting [4]) and 34 µM in the test with Rat fibroblasts (CREF) (setting [5]). In test [2], the IC50 entry is “inactive”.

`CC1=CC2/C=C(\C)CCC(O)C(O)/C=C/C(=O)C23C(=O)NC(CC(C)C)C3C1C` (stereo unspecified): the IC50 with GAPDH (setting [4]) was 9.17 µM; in the test with GAPDH (setting [5]), 6.59 µM; at PEG-3 [1] it was 4.78 µM; in test [2], 7.88 µM; with PEG-3 [3] (setting [4]), 5.76 µM; in the test with PEG-3 [3] (setting [5]), 3.79 µM. For the same compound, the IC50 with Rat fibroblasts (CREF) (mean of runs) is 14.3 µM; in the test with Rat fibroblasts (CREF) (setting [4]), 20.1 µM; in the test on Rat fibroblasts (CREF) (setting [5]), 8.55 µM.
